Series [1] deals with SW1353. The series is described as follows: Cell viability (CellTiter-Glo) cytotoxicity assay, INBRX-109 x CDK9 or MCL-1 inhibitor matrix, 48 h, chondrosarcoma line. In general terms: ATP-based viability assays read luminescence as a measure of living cells.
Procedure: (§1) On day 1, cells were seeded as follows. Monolayer cultures of each cell line (chondrosarcoma: CAL-78, OUMS-27, SW1353, and H-EMC-SS; colorectal cancer: SW620; and synovial sarcoma: HS-SY-II) were harvested for compound screening. Culture medium was aspirated, and the cells were washed once with PBS. Accutase was added and flasks were incubated at 37° C. until cells became detached. An equal volume of complete medium was added to quench the Accutase, and the cells were then pipetted up and down several times to generate a homogenous single cell suspension. The density and viability of cells was determined by Trypan Blue using a TC20 Automated Cell Counter. Experimental cells were resuspended to a concentration of 0.17×10^6/mL in Eagle's Minimum Essential Medium (EMEM)/10% FBS/Anti-Anti media (complete EMEM) and seeded in the inner wells of 384-well luminescence plates at 15 mL/well (2,500/well final). Each cell line was plated in duplicate on separate plates. Outer wells were filled with 50 mL PBS, then plates were incubated in a humidified temperature-controlled 37° C. tissue culture incubator at 5% CO2 overnight for 16 hours.
(§2) These test articles were added, in duplicate, to each cell line. The plates were then centrifuged at 400×g for 1 minute, then incubated in a 37° C. humidity-controlled tissue culture incubator (5% CO2) for 48 hours.
(§3) After incubation with the test articles, viability measurements were taken, briefly. Plates were equilibrated to room temperature for 10 minutes, then 25 μL of CellTiter-Glo 2.0® was added to each well. Plates were spun for 1 minute at 400×g, then covered and incubated in the dark for 10 minutes at room temperature. Any visible bubbles were removed with 100% ethanol vapor, then luminescence (RLU) was read on the Spectra Max M5e plate reader, using the 384-well opaque plate setting and SoftMax® Pro v5.4 software with an integration time of 50 milliseconds. To determine the effect of test articles on cell viability, raw RLU values were exported to Excel and percent survival was calculated as a percentage of vehicle control (0.5% DMSO in EMEM), where the vehicle control is set at 100%. Data was graphed in GraphPad Prism 9.
In series [2] the test system is SW620. The series is described as follows: Cell viability (CellTiter-Glo) cytotoxicity assay, INBRX-109 x CDK9 or MCL-1 inhibitor matrix, 48 h, colorectal cancer line.
Procedure: as §1, §2, §3
The test system of series [3] is OUMS-27. The series is described as follows: Cell viability (CellTiter-Glo) cytotoxicity assay, INBRX-109 x CDK9 or MCL-1 inhibitor matrix, 48 h, chondrosarcoma line.
Procedure: as §1, §2, §3
Series [4] concerns CAL-78, OUMS-27, SW1353, H-EMC-SS, SW620, HS-SY-II. The series is described as follows: Cytotoxicity screens INBRX-109 + CDK9 or MCL-1 inhibitor, summary over the cell lines. Format: cell-based. Particulars: combination with INBRX-109. From the text:
Data was graphed in GraphPad Prism 9.

Series [5] relates to H-EMC-SS. The series is described as follows: Cell viability (CellTiter-Glo) cytotoxicity assay, INBRX-109 x CDK9 or MCL-1 inhibitor matrix, 48 h, chondrosarcoma line.
Procedure: as §1, §2, §3
In series [6] the test system is HS-SY-II. The series is described as follows: Cell viability (CellTiter-Glo) cytotoxicity assay, INBRX-109 x CDK9 or MCL-1 inhibitor matrix, 48 h, synovial sarcoma line.
Procedure: as §1, §2, §3
For series [7], the system named is CAL-78. The series is described as follows: Cell viability (CellTiter-Glo) cytotoxicity assay, INBRX-109 x CDK9 or MCL-1 inhibitor matrix, 48 h, chondrosarcoma line.
Procedure: as §1, §2, §3
In series [8] the target is CDK9 (Homo sapiens, UniProt P50750). Particulars: cited from earlier work.
Setting [9] is: concentrations of 125 nM or higher.

Chain of CDK9 (P50750 whole entry): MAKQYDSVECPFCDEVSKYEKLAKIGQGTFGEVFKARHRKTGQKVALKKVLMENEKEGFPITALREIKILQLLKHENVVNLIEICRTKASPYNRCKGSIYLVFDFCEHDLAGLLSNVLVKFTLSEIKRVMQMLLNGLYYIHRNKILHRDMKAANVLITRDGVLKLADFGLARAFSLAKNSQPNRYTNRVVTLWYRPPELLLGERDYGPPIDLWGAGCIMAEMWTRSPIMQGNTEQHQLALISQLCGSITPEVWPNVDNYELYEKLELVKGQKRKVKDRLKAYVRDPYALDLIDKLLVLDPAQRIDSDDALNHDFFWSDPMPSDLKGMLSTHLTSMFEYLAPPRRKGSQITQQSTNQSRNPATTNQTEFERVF
Chain of CDK9 (O60563 whole entry partner): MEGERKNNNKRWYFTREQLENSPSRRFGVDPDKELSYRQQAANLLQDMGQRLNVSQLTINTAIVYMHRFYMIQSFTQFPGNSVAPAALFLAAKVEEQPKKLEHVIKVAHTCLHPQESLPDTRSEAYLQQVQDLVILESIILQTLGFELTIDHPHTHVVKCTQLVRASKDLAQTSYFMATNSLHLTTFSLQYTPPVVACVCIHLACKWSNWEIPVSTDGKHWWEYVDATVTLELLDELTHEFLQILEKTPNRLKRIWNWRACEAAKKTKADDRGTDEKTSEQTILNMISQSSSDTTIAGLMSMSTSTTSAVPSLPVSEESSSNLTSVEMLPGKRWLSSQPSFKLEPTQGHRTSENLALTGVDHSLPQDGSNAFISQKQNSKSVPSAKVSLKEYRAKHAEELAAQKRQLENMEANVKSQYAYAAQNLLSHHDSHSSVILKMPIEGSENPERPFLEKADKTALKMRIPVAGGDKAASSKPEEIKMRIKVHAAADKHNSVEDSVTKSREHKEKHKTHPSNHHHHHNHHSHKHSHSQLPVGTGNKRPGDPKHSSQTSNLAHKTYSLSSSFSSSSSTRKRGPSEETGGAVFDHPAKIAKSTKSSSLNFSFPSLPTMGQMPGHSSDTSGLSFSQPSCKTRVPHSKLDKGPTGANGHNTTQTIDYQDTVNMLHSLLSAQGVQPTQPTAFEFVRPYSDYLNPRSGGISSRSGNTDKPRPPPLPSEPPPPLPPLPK

Consider `CN1CC[C@H](c2c(O)cc(O)c3c(=O)cc(-c4ccccc4Cl)oc23)[C@H](O)C1` [Flavopiridol], for which the EC50 in series [1] (flavopiridol + 1 nM INBRX-109) was 133 nM; in series [1] (flavopiridol only) it was 202 nM; in series [2] (flavopiridol + 1 nM INBRX-109), 50.2 nM; in series [2] (flavopiridol only) it was “Unstable”; in series [3] (flavopiridol + 1 nM INBRX-109) it was 118 nM; in series [3] (flavopiridol only), 109 nM. Moreover, the EC50 was found to be 53.9 nM in series [5] (flavopiridol + 1 nM INBRX-109); 114 nM in series [5] (flavopiridol only); 103 nM in series [6] (flavopiridol + 1 nM INBRX-109); 108 nM in series [6] (flavopiridol only); 115 nM in series [7] (flavopiridol + 1 nM INBRX-109); 146 nM in series [7] (flavopiridol only). Further, the “Max Cytotox” value is recorded as 88.3% in series [1] (flavopiridol + 1 nM INBRX-109); 98.7% in series [2] (flavopiridol + 1 nM INBRX-109); 87.8% in series [3] (flavopiridol + 1 nM INBRX-109); 99% in series [5] (flavopiridol + 1 nM INBRX-109); 95.1% in series [6] (flavopiridol + 1 nM INBRX-109). The “Max Cytotox at 125 nM” value worked out at 21.7% in series [1] (flavopiridol only); 21.7% in series [2] (flavopiridol only); 24.0% in series [3] (flavopiridol only); 21.9% in series [5] (flavopiridol only); 55.8% in series [6] (flavopiridol only); 10.9% in series [7] (flavopiridol only). In series [4], the “cell killing by the combination” value is recorded as “increased cell killing on nearly every cancer cell line tested”. Besides, in series [4] (setting [9]), the “combination effect (shift in the killing curves of INBRX-109)” value is recorded as “synergistic effect”.
Turning to `COC[C@@H](C)N[C@H]1CC[C@H](Nc2cc(-c3cccc(NCC4(C#N)CCOCC4)n3)c(Cl)cn2)CC1` [NVP-2], the EC50 in series [1] (NVP-2 + 1 nM INBRX-109) was 22.3 nM; in series [1] (NVP-2 only), 30.6 nM; in series [2] (NVP-2 + 1 nM INBRX-109), 4.91 nM; in series [2] (NVP-2 only), 12.6 nM; in series [3] (NVP-2 + 1 nM INBRX-109) it was 16.3 nM; in series [3] (NVP-2 only), 9 nM. The EC50 in series [5] (NVP-2 + 1 nM INBRX-109) stood at 24.5 nM; in series [5] (NVP-2 only) it was 23.5 nM; in series [7] (NVP-2 + 1 nM INBRX-109), 26.4 nM; in series [7] (NVP-2 only), 23.2 nM. In addition, the “Max Cytotox” value was 79.5% in series [1] (NVP-2 + 1 nM INBRX-109); 98.7% in series [2] (NVP-2 + 1 nM INBRX-109); 88.5% in series [3] (NVP-2 + 1 nM INBRX-109); 98.7% in series [5] (NVP-2 + 1 nM INBRX-109); 92.4% in series [7] (NVP-2 + 1 nM INBRX-109). Also, the “Max Cytotox at 125 nM” value is listed as 52.8% in series [1] (NVP-2 only); 39.5% in series [2] (NVP-2 only); 20.4% in series [3] (NVP-2 only); 46.4% in series [5] (NVP-2 only); 42.2% in series [7] (NVP-2 only). The “cell killing by the combination” value in series [4] is recorded as “increased cell killing on nearly every cancer cell line tested”. Also, in series [4] (concentrations higher than 25 nM), the “combination effect (shift in the killing curves of INBRX-109)” value is recorded as “synergistic effect”.
On to `N[C@H]1CC[C@H](Nc2cc(-c3cccc(NCc4cccc(F)c4)n3)c(Cl)cn2)CC1` [i-CDK9], for which the “selectivity for CDK9 over other CDKs” value in series [8] is reported as 600 fold.
Take `COc1cc(F)ccc1-c1cc(Nc2cc(CS(C)(=N)=O)ccn2)ncc1F` (centres unmarked) [Enitociclib]: the EC50 in series [1] (enitociclib + 1 nM INBRX-109) stood at 103 nM; in series [1] (enitociclib only), 102 nM; in series [2] (enitociclib + 1 nM INBRX-109), 39.3 nM; in series [2] (enitociclib only), 25.8 nM; in series [3] (enitociclib + 1 nM INBRX-109), 90.4 nM; in series [3] (enitociclib only), 51 nM. Besides, the EC50 worked out at 114 nM in series [5] (enitociclib + 1 nM INBRX-109); 124 nM in series [5] (enitociclib only); 89.1 nM in series [6] (enitociclib + 1 nM INBRX-109); 74 nM in series [6] (enitociclib only); 108 nM in series [7] (enitociclib + 1 nM INBRX-109); 144 nM in series [7] (enitociclib only). Moreover, the “Max Cytotox” value stood at 64.6% in series [1] (enitociclib + 1 nM INBRX-109); 97.6% in series [2] (enitociclib + 1 nM INBRX-109); 81% in series [3] (enitociclib + 1 nM INBRX-109); 99.2% in series [5] (enitociclib + 1 nM INBRX-109); 94% in series [6] (enitociclib + 1 nM INBRX-109); 90.8% in series [7] (enitociclib + 1 nM INBRX-109). Further, the “Max Cytotox at 125 nM” value in series [1] (enitociclib only) was found to be 28.0%; in series [2] (enitociclib only), 27.3%; in series [3] (enitociclib only), 25.6%; in series [5] (enitociclib only), 15.8%; in series [6] (enitociclib only), 73.2%; in series [7] (enitociclib only), 10.9%. The “cell killing by the combination” value in series [4] was “increased cell killing on nearly every cancer cell line tested”. Moreover, the “combination effect (shift in the killing curves of INBRX-109)” value in series [4] (setting [9]) is on record as “synergistic effect”.

As usually defined, the EC50 is the concentration at which the effect is half-maximal.

The values above are taken from patent US20250215101A1, “DR5 Agonist and PLK1 Inhibitor or CDK Inhibitor Combination Therapy” (Inhibrx Biosciences, Inc., priority 2022, published 2025).
